Where two headings read alike, the source gives them in different places.
Experiments:
STAT3 = target: T1, STAT3 (Homo sapiens, UniProt P40763); assay: STAT3 Fluorescence Polarization (FP) Assay; assay type: binding
T1 construct: Recombinant STAT3 protein (STAT3(G127-1722))

pSTAT3 = target: T2, pSTAT3 (Homo sapiens, UniProt P40763); assay: MSD-pSTAT-PBMC Assay, pSTAT3 (IL-6 stimulated PBMC); assay type: cell-based
T2 construct: pY705-STAT3 MSD read-out
Source text: Cryopreserved Peripheral Blood Mononuclear Cells (PBMC) are from AllCells. Recombinant Human IL-4 and IL-6 are from Peprotech. Mouse monoclonal anti-STAT3 antibody, rabbit monoclonal anti-pY705-STAT3 antibody, rabbit monoclonal Anti-pY641-STAT6 antibody, and lysis buffer are from Cell Signaling Technology (CST). Mouse monoclonal anti-STAT6 antibody is from BioLegend. Assay plates, blocker, and anti-rabbit secondary antibody are from Meso Scale Discovery (MSD).
Cryopreserved PBMCs were thawed out and allowed to recover overnight in IMDM+10% heat-inactivated FBS prior to plating 50,000 (STAT3) or 25,000 (STAT6) cells per well in 96-well U-bottom tissue culture plates. Cells were treated with compound for 3 hrs. then stimulated with 10 ng/mL IL-6 (STAT3) or 1 ng/mL IL-4 (STAT6) for 10 min. Cells were then spun down and washed with ice-cold PBS prior to lysing the cell pellet with 1× lysis buffer (CST) with 1×HALT protease and phosphatase inhibitor cocktail (Thermo). Lysates were transferred to and incubated overnight at 4° C. with shaking in QuickPlex 96-well high bind assay plates (MSD) pre-coated overnight with 30 μL per well of 0.6 μg/mL mouse monoclonal anti-STAT3 antibody (STAT3) or 2 μg/mL mouse monoclonal anti-STAT6 antibody (STAT6) in 1×PBS, and pre-blocked for 1 hour with 3% Blocker-A (MSD). Captured protein in the assay plates were then washed and probed with 25 μL per well of 0.25 μg/ml rabbit monoclonal anti-pY705-STAT3 antibody (STAT3) or 0.18 μg/ml rabbit monoclonal Anti-pY641-STAT6 antibody (STAT6) in 1% Blocker-A for 1 hour at room temperature with shaking, then washed and probed with 25 ul per well of 1 ug/ml Sulfo-TAG Labeled Goat Anti-Rabbit Antibody (MSD) in 1% Blocker-A for 1 hour at room temperature with shaking. Assay plates were then washed and 150 μL of 1× Read Buffer-T (MSD) was added to each well prior to reading on an SQ120 MSD Plate Reader. Assay signal from each sample was subtracted by the signal from unstimulated control wells and normalized to DMSO control wells. IC50 values were calculated using Graph Pad Prism Dose-Response Nonlinear Regression with variable slope. For both pSTAT3 and pSTAT6 A=≤100 nM; B=>100-1000 nM; C=>1000-3000 nM; and D=>3 μM.

pSTAT6 = target: T3, pSTAT6 (Homo sapiens, UniProt P42226); assay: MSD-pSTAT-PBMC Assay, pSTAT6 (IL-4 stimulated PBMC); assay type: cell-based
T3 construct: pY641-STAT6 MSD read-out
T3 sequence (P42226 1-847): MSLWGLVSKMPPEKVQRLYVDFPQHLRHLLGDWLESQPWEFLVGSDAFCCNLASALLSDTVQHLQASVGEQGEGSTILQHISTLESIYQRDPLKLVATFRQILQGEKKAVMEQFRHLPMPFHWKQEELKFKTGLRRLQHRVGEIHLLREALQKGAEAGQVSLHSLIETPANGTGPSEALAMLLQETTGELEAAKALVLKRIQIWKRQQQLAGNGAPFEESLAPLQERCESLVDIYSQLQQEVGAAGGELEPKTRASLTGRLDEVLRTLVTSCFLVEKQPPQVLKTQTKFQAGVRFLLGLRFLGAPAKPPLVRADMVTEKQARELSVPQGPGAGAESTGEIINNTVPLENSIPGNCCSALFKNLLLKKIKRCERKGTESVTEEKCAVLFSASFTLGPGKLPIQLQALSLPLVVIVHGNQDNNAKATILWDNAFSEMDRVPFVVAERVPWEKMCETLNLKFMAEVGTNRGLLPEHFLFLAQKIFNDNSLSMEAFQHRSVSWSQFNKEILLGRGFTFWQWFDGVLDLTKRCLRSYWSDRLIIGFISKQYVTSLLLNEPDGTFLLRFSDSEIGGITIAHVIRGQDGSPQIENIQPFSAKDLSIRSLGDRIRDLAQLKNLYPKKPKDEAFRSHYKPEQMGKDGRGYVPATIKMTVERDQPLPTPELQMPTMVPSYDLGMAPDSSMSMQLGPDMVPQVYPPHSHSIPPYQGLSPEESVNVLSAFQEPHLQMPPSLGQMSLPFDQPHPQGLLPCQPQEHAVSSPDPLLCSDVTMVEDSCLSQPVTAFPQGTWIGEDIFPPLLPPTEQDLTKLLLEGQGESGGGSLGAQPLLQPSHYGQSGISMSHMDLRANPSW
How it was run: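 Human PBMC were recovered overnight, treated 3 h with compound, then stimulated for 10 min with 10 ng/mL IL-6 (pSTAT3) or 1 ng/mL IL-4 (pSTAT6). Lysates were read by MSD sandwich immunoassay, with total STAT capture and pY705-STAT3 or pY641-STAT6 detection. Signal minus unstimulated wells was normalized to DMSO, and IC50 came from a variable-slope fit.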

STAT6 = target: T4, STAT6 (Homo sapiens, UniProt P42226); assay: STAT6 Fluorescence Polarization (FP) Assay; assay type: binding
T4 construct: Recombinant STAT6 protein (STAT6(W123-T658))
T4 sequence (P42226 123-658): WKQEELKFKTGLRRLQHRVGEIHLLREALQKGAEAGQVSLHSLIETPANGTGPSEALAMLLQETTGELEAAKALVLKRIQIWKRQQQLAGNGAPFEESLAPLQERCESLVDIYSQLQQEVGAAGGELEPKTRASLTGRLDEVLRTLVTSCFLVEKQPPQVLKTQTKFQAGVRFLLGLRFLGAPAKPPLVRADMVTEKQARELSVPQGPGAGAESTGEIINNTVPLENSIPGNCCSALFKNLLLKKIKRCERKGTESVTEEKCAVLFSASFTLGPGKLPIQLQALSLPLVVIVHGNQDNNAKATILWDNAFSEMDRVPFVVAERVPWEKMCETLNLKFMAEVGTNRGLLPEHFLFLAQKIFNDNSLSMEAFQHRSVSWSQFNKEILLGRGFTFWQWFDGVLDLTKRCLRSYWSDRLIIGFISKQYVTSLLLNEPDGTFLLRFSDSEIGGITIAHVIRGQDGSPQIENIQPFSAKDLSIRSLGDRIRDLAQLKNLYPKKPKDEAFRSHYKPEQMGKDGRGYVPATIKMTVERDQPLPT
How it was run: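 STAT6(W123-T658) at 250 nM plus 2 nM 5-FAM phosphotyrosine peptide probe in HEPES pH 7.4 buffer with 2 mM DTT, 1% DMSO final. Polarization read after 45 min at room temperature. IC50 from nonlinear regression of mP against log concentration.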

[1] = read-out: pSTAT3 IC50, compound 3 hrs, then 10 ng/mL IL-6 for 10 min, pY705-STAT3
[2] = read-out: pSTAT6 IC50, compound 3 hrs, then 1 ng/mL IL-4 for 10 min, pY641-STAT6
[3] = recombinant STAT3 25 nM, probe 5-FAM-GpYLPQTV-NH2 2 nM, 45 min, room temperature, read-out: STAT3 FP IC50
[4] = compound 3 hrs, then 10 ng/mL IL-6 for 10 min, pY705-STAT3, read-out: pSTAT3 IC50
[5] = recombinant STAT6(W123-T658) 250 nM, probe 5-FAM-Ap[…]-NH2 2 nM, 45 min, room temperature, read-out: STAT6 FP IC50
[6] = compound 3 hrs, then 1 ng/mL IL-4 for 10 min, pY641-STAT6, read-out: pSTAT6 IC50

T2 sequence (P40763 whole entry): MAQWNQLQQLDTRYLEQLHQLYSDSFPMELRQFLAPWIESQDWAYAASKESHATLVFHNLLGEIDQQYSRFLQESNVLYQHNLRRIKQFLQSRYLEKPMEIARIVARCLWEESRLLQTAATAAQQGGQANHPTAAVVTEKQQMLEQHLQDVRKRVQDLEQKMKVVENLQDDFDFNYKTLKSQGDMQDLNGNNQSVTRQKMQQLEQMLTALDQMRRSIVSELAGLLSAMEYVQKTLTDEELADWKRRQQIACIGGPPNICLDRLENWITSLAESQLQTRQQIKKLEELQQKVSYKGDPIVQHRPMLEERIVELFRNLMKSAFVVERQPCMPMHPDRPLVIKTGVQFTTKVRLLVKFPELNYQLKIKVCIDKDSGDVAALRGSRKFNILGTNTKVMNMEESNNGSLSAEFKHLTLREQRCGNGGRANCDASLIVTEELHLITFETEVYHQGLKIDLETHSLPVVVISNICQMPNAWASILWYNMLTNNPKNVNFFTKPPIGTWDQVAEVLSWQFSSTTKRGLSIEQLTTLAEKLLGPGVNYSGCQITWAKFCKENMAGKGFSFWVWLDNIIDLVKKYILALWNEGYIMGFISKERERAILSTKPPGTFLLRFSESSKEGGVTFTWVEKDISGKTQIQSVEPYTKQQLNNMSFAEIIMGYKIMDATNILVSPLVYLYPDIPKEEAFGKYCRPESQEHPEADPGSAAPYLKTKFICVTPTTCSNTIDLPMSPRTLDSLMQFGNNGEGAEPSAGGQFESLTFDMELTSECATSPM
T1 sequence (P40763 127-722 limits assumed): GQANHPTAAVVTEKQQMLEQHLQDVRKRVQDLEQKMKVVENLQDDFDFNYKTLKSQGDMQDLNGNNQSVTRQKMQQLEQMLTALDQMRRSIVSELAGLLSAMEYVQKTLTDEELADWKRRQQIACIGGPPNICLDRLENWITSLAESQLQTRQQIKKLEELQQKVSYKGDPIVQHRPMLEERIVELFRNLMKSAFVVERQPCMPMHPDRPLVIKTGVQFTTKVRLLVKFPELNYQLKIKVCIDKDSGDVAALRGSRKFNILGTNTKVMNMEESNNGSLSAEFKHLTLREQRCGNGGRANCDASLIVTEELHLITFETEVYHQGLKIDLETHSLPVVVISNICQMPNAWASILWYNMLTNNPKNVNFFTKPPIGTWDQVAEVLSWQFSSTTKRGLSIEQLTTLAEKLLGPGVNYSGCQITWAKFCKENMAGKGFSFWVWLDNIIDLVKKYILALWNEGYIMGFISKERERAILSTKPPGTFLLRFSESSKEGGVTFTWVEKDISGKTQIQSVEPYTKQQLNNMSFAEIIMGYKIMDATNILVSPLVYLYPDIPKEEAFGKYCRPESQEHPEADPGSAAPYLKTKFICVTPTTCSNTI

Row | Compound | IC50 (STAT3) [µM] | IC50 (pSTAT3; [1]) [µM] | IC50 (pSTAT6; [2]) [µM] | IC50 (STAT6) [µM] | IC50 (STAT3; [3]) [µM] | IC50 (pSTAT3; [4]) [µM] | IC50 (STAT6; [5]) [µM] | IC50 (pSTAT6; [6]) [µM]
1 | Cc1ccc2[nH]nc(C(=O)N3CC[C@H]4CC[C@@H](C(=O)NCCCCCCC#Cc5cccc6c5CN(C5CCC(=O)NC5=O)C6=O)N4C(=O)[C@@H](NC(=O)c4ccc5ccc(C(F)(F)P(=O)(O)O)cc5c4)C3)c2c1 (stereo partly drawn) [Compound 9, ((7-(((5S,8S,10aR)-8-((8-(2-(2,6-dioxopiperidin-3-yl)-1-oxoisoindolin-4-yl)oct-7-yn-1-yl)carbamoyl)-3-(5-methyl-1H-indazole-3-carbonyl)-6-oxodecahydropyrrolo[1,2-a][1,5]diazocin-5-yl)carbamoyl)naphthalen-2-yl)difluoromethyl)phosphonic acid] | 1 to 10 | > 3 | 1 to 3 | < 0.3 | – | – | – | –
2 | CN(C)c1ccncc1C1CN(C(=O)[C@@H]2CC[C@@H]3CCN(C(=O)CCCCCC#Cc4cccc5c4CN(C4CCC(=O)NC4=O)C5=O)C[C@H](NC(=O)c4cc5cc(C(F)(F)P(=O)(O)O)ccc5s4)C(=O)N32)C1 (stereo partly drawn) [Compound 39, ((2-(((5S,8S,10aR)-8-(3-(4-(dimethylamino)pyridin-3-yl)azetidine-1-carbonyl)-3-(8-(2-(2,6-dioxopiperidin-3-yl)-1-oxoisoindolin-4-yl)oct-7-ynoyl)-6-oxodecahydropyrrolo[1,2-a][1,5]diazocin-5-yl)carbamoyl)benzo[b]thiophen-5-yl)difluoromethyl)phosphonic acid] | – | – | – | – | < 0.1 | 0.1 to 1 | 3 to 30 | –
3 | CN(C(=O)[C@@H]1CC[C@@H]2CCN(C(=O)CCCCCC#Cc3cccc4c3CN(C3CCC(=O)NC3=O)C4=O)C[C@H](NC(=O)c3cc4cc(C(F)(F)P(=O)(O)O)ccc4[nH]3)C(=O)N21)c1ccccc1 (stereo partly drawn) [Compound 1, [(2-{[(5S,8S,10aR)-3-{8-[2-(2,6-dioxopiperidin-3-yl)-1-oxo-2,3-dihydro-1H-isoindol-4-yl]oct-7-ynoyl}-8-[methyl(phenyl)carbamoyl]-6-oxo-decahydropyrrolo[1,2-a][1,5]diazocin-5-yl]carbamoyl}-1H-indol-5-yl)difluoromethyl]phosphonic acid] | 1 to 10 | > 3 | > 3 | 0.3 to 3 | – | – | – | –
4 | CC(=O)N1CC[C@H]2CC[C@@H](C(=O)Nc3ccc(-c4ccc(NC(=O)CCCCCC#Cc5cccc6c5CN(C5CCC(=O)NC5=O)C6=O)cc4)cc3)N2C(=O)[C@@H](NC(=O)c2cc3cc(C(F)(F)P(=O)(O)O)ccc3[nH]2)C1 (stereo partly drawn) [Compound 3, ((2-(((5S,8S,10aR)-3-acetyl-8-((4′-(8-(2-(2,6-dioxopiperidin-3-yl)-1-oxoisoindolin-4-yl)oct-7-ynamido)-[1,1′-biphenyl]-4-yl)carbamoyl)-6-oxodecahydropyrrolo[1,2-a][1,5]diazocin-5-yl)carbamoyl)-1H-indol-5-yl)difluoromethyl)phosphonic acid] | 0.1 to 1 | > 3 | > 3 | 0.3 to 3 | – | – | – | –
5 | O=C1CCC(N2Cc3c(C#CCCCCCC(=O)N4CC[C@H]5CC[C@@H](C(=O)N6CC(c7cccnc7)C6)N5C(=O)[C@@H](NC(=O)c5cc6cc(C(F)(F)P(=O)(O)O)ccc6s5)C4)cccc3C2=O)C(=O)N1 (stereo partly drawn) [Compound 5, ((2-(((5S,8S,10aR)-3-(8-(2-(2,6-dioxopiperidin-3-yl)-1-oxoisoindolin-4-yl)oct-7-ynoyl)-6-oxo-8-(3-(pyridin-3-yl)azetidine-1-carbonyl)decahydropyrrolo[1,2-a][1,5]diazocin-5-yl)carbamoyl)benzo[b]thiophen-5-yl)difluoromethyl)phosphonic acid] | – | – | – | – | < 0.1 | > 3 | 3 to 30 | > 3
6 | N#CC1CN(C(=O)C2CCC3CCN(C(=O)CCCCCC#Cc4cccc5c4CN(C4CCC(=O)NC4=O)C5=O)CC(NC(=O)c4cc5cc(C(F)(F)P(=O)(O)O)ccc5s4)C(=O)N32)CC1c1ccccc1 [Compound 6, ((2-(((5S,8S,10aR)-8-((rel-3S,4R)-3-cyano-4-phenylpyrrolidine-1-carbonyl)-3-(8-(2-(2,6-dioxopiperidin-3-yl)-1-oxoisoindolin-4-yl)oct-7-ynoyl)-6-oxodecahydropyrrolo[1,2-a][1,5]diazocin-5-yl)carbamoyl)benzo[b]thiophen-5-yl)difluoromethyl)phosphonic acid] | – | – | – | – | 1 to 10 | > 3 | < 0.3 | 1 to 3
7 | Cc1ccc2[nH]nc(C(=O)N3CC[C@H]4CC[C@@H](C(=O)NCCCCCCCCC(=O)N[C@H](C(=O)N5C[C@H](O)C[C@H]5C(=O)N[C@@H](C)c5ccc(-c6scnc6C)cc5)C(C)(C)C)N4C(=O)[C@@H](NC(=O)c4ccc5ccc(C(F)(F)P(=O)(O)O)cc5c4)C3)c2c1 [Compound 7] | 1 to 10 | > 3 | > 3 | < 0.3 | – | – | – | –

Reference: US20260308186A1, “STAT DEGRADERS AND USES THEREOF” (Recludix Pharma, Inc., priority 2023, published 2026)
